In assay [1] the test system is capsaicin-sensitive cutaneous nerves (small sensory fibers). The assay is described as follows: Capsaicin-induced pungency (quality of sensation). Format: in vivo, human. As for the experimental part:
Topical Capsaicin: Capsaicin, 8-methyl-N-vanillyl-6-nonenamide, is a vanilloid neurotoxin that targets somatic small primary afferent neurons. Capsaicin (1% in 75% ethanol, 25% saline) was applied topically for 45 minutes through a central chamber (300 μl capacity, 1 cm diameter) in a clear circular plastic perspex adhered to the skin. Throughout the application, perceptual responses and peak flow values were obtained. The vehicle was applied at different skin sites to 6 normal subjects.

For assay [2] the test system is unchanged. The assay is described as follows: Capsaicin-induced desensitization (Cap-D). Format: in vivo, human. As for the experimental part:
Capsaicin-Induced Desensitization: Eight (8) normal subjects were recruited to ascertain the degree of capsaicin sensitivity of each of the tests described above. Each subject applied topical capsaicin to one forearm and thigh, and the vehicle to the opposing limb in 45 minute applications, 3-4 times daily for 5 days.

For assay [3] the test system is unchanged. The assay is described as follows: Heat-step heat pain threshold after acute topical capsaicin (primary hyperalgesia). The assay is classed as in vivo, human. The method, then: In the heat-step procedure, basal blood flow was monitored at resting skin temperature and later at 32° C. The temperature was raised in increments of 2° C. per minute until a maximum temperature value of 48° C. was reached. Sensory responses (specifically, heat pain threshold, HPT) and peak net flows at each increment were documented. A second heat-step test followed an acute application of topical capsaicin to the skin to measure sensitization by HPT, i.e., primary hyperalgesia. Two normal and obese subjects complained that the pungency from the capsaicin was extreme and, as a consequence, the heat-step test for hyperalgesia was not conducted.

The test system is the same in assay [4]. The assay is described as follows: Acute topical capsaicin-induced cutaneous blood flow by laser Doppler flowmetry. Format: in vivo, human.
The test system of another assay is NOS. The conditions noted are these: animals (Isenberg et al, 2005); cited from earlier work.
For a further assay, the system named is diabetic wounds. The conditions noted are these: cited from earlier work.
In another assay the test system is wound areas. The conditions noted are these: 50 ul of 110 ug/ml solution topically (Li et al, 1980); cited from earlier work.
A further assay has as its system leukocyte chemotaxis. The settings on record: subdermal air sacs, mice (Lawman et al, 1985); cited from earlier work.
In the next assay the test system is venous stasis ulcers. The settings on record: CGRP and VIP given together by iontophoresis (Gherardini et al, 1998b); cited from earlier work.

Where no end group is shown, it is not given here.

With `COc1cc(CNC(=O)CCCCC=CC(C)C)ccc1O` [Capsaicin, 8-methyl-N-vanillyl-6-nonenamide], in assay [1] (normal subjects), the capsaicin-induced pungency level is 90%, the share perceiving burn/pain entry was “approximately 80%” and the “share reporting a stinging/prickly sensation” value came to 20%. In [1] (obese subjects), this compound had a capsaicin-induced pungency level of 45%. In addition, the “heat-induced flux in heat-ramp test after Cap-D” value in assay [2] (direct and indirect flow, versus vehicle) was “decreased significantly”. Further, the “dose (mC)-response (flux) curve to transcutaneous electrical stimulation after Cap-D” value in [2] (indirect site) is given as “abolished neurogenic flare”. Besides, in [2] (normal subjects n=8), the “blood flow on acute capsaicin challenge after Cap-D” value is “virtually no increased blood flow” and the “pungency on acute capsaicin challenge after Cap-D” value was “no pungency”. Moreover, the “HPT after capsaicin-induced desensitization” value in assay [2] (topical capsaicin 3-4 times daily for 5 days, normal subjects n=8, maximum temperature utilized) is > 48 °C. The “Heat Step HPT Post-Cap - Hyperalgesia, Normal, Mean” value in assay [3] (after acute topical capsaicin, normal subjects) is 37.1 °C. Moreover, the “Heat Step HPT Post-Cap - Hyperalgesia, Obese, Mean” value in assay [3] (after acute topical capsaicin, obese subjects) amounted to 39.8 °C. In [3] (both normal and obese groups, p<0.001), the “fall in the HPT, average” value is recorded as ~7 C. Further, the “share of population with pronounced hyperalgesic response” value in assay [3] (normal population, n=11/13) was ~90%. In addition, in [3] (obese population, n=43/53), the “share of population with pronounced hyperalgesic response” value was “Approximately 80%”. Besides, the “Capsaicin Latency, Indirect, Normal, Mean” value in [4] (latency to flare, indirect site, normal subjects) is on record as 12 min. Further, the “Capsaicin Latency, Indirect, Obese, Mean” value in assay [4] (latency to flare, indirect site, obese subjects) was 26 min. Besides, in [4] (latency to vasodilatory response, direct site, normal subjects), the “Capsaicin Latency, Direct, Normal, Mean” value is 11 min. Besides, in assay [4] (latency to vasodilatory response, direct site, obese subjects), the “Capsaicin Latency, Direct, Obese, Mean” value turned out to be 21 min. In addition, the “Capsaicin Flux, Direct, Normal, Mean” value in assay [4] (net peak flux, direct flow site, 1% topical capsaicin 45 min, forearm, normal subjects) turned out to be 299 AU. For the same compound, the “Capsaicin Flux, Direct, Obese, Mean” value in assay [4] (net peak flux, direct flow site, 1% topical capsaicin 45 min, forearm, obese subjects) was determined as 159 AU. The “Capsaicin Flux, Indirect, Normal, Mean” value in assay [4] (net peak flux, indirect flow (flare) site, 1% topical capsaicin 45 min, normal subjects) amounted to 257 AU. Also, the “Capsaicin Flux, Indirect, Obese, Mean” value in assay [4] (net peak flux, indirect flow (flare) site, 1% topical capsaicin 45 min, obese subjects) is reported as 128 AU.
As for `COC(=O)[C@@H](N)CCCNC(=N)N[N+](=O)[O-]` [L-NAME], the “vessel diameter and blood flow in skin flaps” value in the assay with NOS is “marked decreases in vessel diameter and blood flow”.
For `N=C(N)NCCC[C@H](N)C(=O)O` [LA, L-Arginine], the wound healing result with diabetic wounds (diabetic rats (Shi et al)) is reported as “improve wound healing”. Besides, the “wound NOx levels” value in the assay on diabetic wounds (diabetic wounds (Shi et al)) is listed as “increased NOx levels to normal values”.
Turning to “NGF: Nerve growth factor, instrumental in the synthesis of sensory neuropeptides in the DRG”, the wound healing entry in the assay with wound areas is “markedly accelerated healing”. Moreover, the leukocyte chemotaxis entry in the assay with leukocyte chemotaxis is “significantly increased leukocyte chemotaxis”.
On to “VIP: Vasoactive Intestinal Polypeptide, peptide released by C-fibers (HSDAVFTDNYTRLRKQMAVKKYLNSILN; ends and bridges not checked; UniProt P01282 125-152, looked up)”, for which, in the assay on venous stasis ulcers, the “healing of venous stasis ulcers” value is listed as “improved healing of venous stasis ulcers”.

Values taken from patent US20070264354A1, “TREATMENT OF A WOUND WITH A VASODILATOR” (priority 2006, published 2007).
